Results taken from patent US20060116518A1, “Novel phenanthridines” (Altana Pharma AG, priority 2002, published 2006).

Compound	melting point
CCN(CC)C(=N)NC(=O)c1ccc(C2=N[C@@H]3CCCC[C@@H]3c3cc(OC)c(OC)cc32)cc1 [Compound 1, N′-{-[4-((4aR,10bR)-8,9-Dimethoxy-1,2,3,4,4a,10b-hexahydrophenanthridin-6yl)-phenyl]-methanoyl}-N,N-diethylquanidine]	132 to 135 °C
COc1cc2c(cc1OC)C1CCCCC1N=C2c1ccc(C(=O)NC(=N)N2CCN(C)CC2)cc1 (stereo not drawn) [Compound 5]	133 °C
COc1cc2c(cc1OC)C1CCCCC1N=C2c1ccc(C(=O)NC(=N)N2CCCC2)cc1 [Compound 9, 4-((4aR,10bR)-8,9-Dimethoxy-1,2,3,4,4a.10b-hexahydro-phenanthridin-6-yl)-N-(1-imino-1-pyrrolidin-1-yl-methyl)-benzamide]	126 °C
COc1cc2c(cc1OC)[C@H]1CCCC[C@H]1N=C2c1ccc(C(=O)NC(=N)n2nc(C)cc2C)cc1 [Compound 11, 4((4aR,10bR)-8,9-Dimethoxy-1,2,3,4,4a,10b-hexahydro-phenanthridin-6-yl)-N-[1-(3,5-dimethyl-pyrazol-1-yl)-1-imino-methyl]-benzamide]	179 to 180 °C
CCN(CC)C(=N)NC(=O)c1cccc(C2=NC3CCCCC3c3cc(OC)c(OC)cc32)c1 [Compound 12, N′-{1[3-((4aR,10bR)-8,9-Dimethoxy-1,2,3,4,a,10b-hexahydrophenanthridin-6-yl)-phenyl]-methanoyl}-N,N-diethylquanidine]	89 to 91 °C
COc1cc2c(cc1OC)[C@H]1CCCC[C@H]1N=C2c1cccc(C(=O)NC(=N)N2CCOCC2)c1 [Compound 13, 3-((4aR,10bR)-8,9-Dimethoxy-1,2,3,4,4a,10b-hexahydrophenanthridin-6-yl)-N-(1-imino-1-morpholin-4yl-methyl)-benzamide]	187 to 188 °C
